{"source": "patent US11096947B2", "about": "“Combination products with tyrosine kinase inhibitors and their use” (Novartis AG, priority 2012, dated 2021)", "key": {"[1]": {"system": "HCC827GR5 subcutaneous xenografts", "assay": "Efficacy experiments in mice bearing HCC827GR5 subcutaneous xenografts", "assay_type": "in vivo", "conditions": "for antitumor effect as single agent: Discussion; for antitumor effect as single agent / Delta tumor volume / regressions: MET inhibitor 3 mg/kg, gefitinib 25 mg/kg; for T/C: gefitinib 25 mg/kg orally once a day; for T/C / regressions: 13 days; for regressions: orally once a day", "procedure": "Experiments were performed in female Hsd: Athymic nude-nu CPB mice obtained from Harlan Winkelmann, Germany. Animally were approximately 11 weeks of age at treatment start and housed under Optimized Hygienic Conditions (OHC) in Macrolon type III cages (max. 5 animals per cage) with free access to food and water.\nCell line identity has been confirmed by SNP genotyping. Cells were grown in RPMI 1640 medium (Amimed #1-41F01-1) supplemented with 10% heat inactivated FCS, (Amimed #2-01F16-1), 2 mM L-glutamine (Amimed #5-10K00-H), 1 mM sodium pyruvate (Amimed #5-60F00-H) and 10 mM HEPES (Gibco #15630). […]. Cells were incubated at 37° C. in a humidified atmosphere with 5% CO2.\nHCC827GR5 tumors were established by subcutaneous injection of 5×10^6 cells in 115 μl HBSS (Hank's buffered salt solution) containing 50% Matrigel (v/v) (gelatinous protein mixture secreted by Engelbreth-Holm-Swarm (EHS) mouse sarcoma cells, BD Biosciences, Franklin Lakes, N.J., USA) into the right flank of mice, with a 13 gauge trocar needle under Forene® (Isofluran; Abott, Switzerland) anesthesia. In the efficacy experiments, treatments started when the tumors reached an average size of 150 mm^3, 11 days post tumor implantation. In the PK/PD experiment, treatments were started when the mean tumor size was 450 mm^3, 15 days post tumor implantation.\nThe application volumes were 10 ml/kg for the single agents and for the vehicle control group or 5 ml/kg when the test compounds were given in combination. All indicated doses refer to free base equivalent of 2-Fluoro-N-methyl-4-[(7-quinolin-6-yl-methyl)-imidazo[1,2-b]triazin-2-yl]benzamide (dihydrochloride salt). […].\nTumor volumes were measured with calipers and determined according to the formula length×diameter^2×π/6. In addition to presenting changed of tumor volumes over the course of treatments, antitumor activity is expressed as T/C % ((mean change of tumor volume of treated animals/mean change of tumor volume of control animals)×100). Regressions (%) were calculated according to the formula ((mean tumor volume at end of treatment−mean tumor volume at start of treatment)/mean tumor volume at start of treatment)×100. Body weights and tumor volumes were recorded twice a week.\nStatistics: Were applicable, data is presented as mean±SEM. For all tests, the level of significance was set at p<0.05. For tumor volumes, comparisons between treatment groups and vehicle control group were done using one-way ANOVA followed by Dunnett's test. Pairwise comparisons were done using a one way ANOVA followed by Tukey's test. The level of significance of body weight change within a group between the start and the end of the treatment period was determined using a paired t-test. Comparisons of delta body weighs between treatment and vehicle control groups were performed by a one-way ANOVA followed by a post hoc Dunnett's test. Calculations were performed using GraphPad Prism 4 for Windows (GraphPad Software Inc.). In addition, an approximation of drug interactions was made using the method described by Clarke (Clarke R., Breast Cancer Research and Treatment 46, 255-278 (1997)). This was applied to delta tumor volumes and can estimate interactions from limited data. In short, the combination data was assessed using the method presented by Clarke which can estimate interactions from limited data. For compound A, B or the combination AB (with control group C), antagonism is predicted when the calculation AB/C>A/C×B/C, additive effect: AB/C=A/C×B/C, synergistic interactions are predicted to occur when AB/C<A/C×B/C.\nThe body weight increase was statistically significant in all groups excepted the combination group (p<0.05, paired t-test)."}, "HCC827 cells": {"system": "HCC827 cells", "assay": "Proliferation assay (resazurin / AlamarBlue readout) in HCC827 cells", "assay_type": "cell-based", "conditions": "single agent, up to 1 μM", "method": "A DMSO-only control was included. […] Recombinant human HGF (PeproTech, catalogue number 100-39) was added together with compounds at a constant concentration as indicated in the respective experiments. Cells were incubated for 72 to 96 h and the amount of viable cells was then assessed using a resazurin sodium salt dye reduction readout (commercially known as AlamarBlue® assay, Invitrogen, Life Technologies Corporation, Grand Island, N.Y., USA). Values were normalized and plotted as either “% of control” with the DMSO control set to 100%, or as “fold seeded cells”. In this case a resazurin readout of separate wells with untreated cells was obtained 24 h after seeding in order to determine a “seeded cells” value for normalization. Plotting of the data and curve-fitting were done with GraphPad Prism version 5.00 for Windows (GraphPad Software, Inc., La Jolla, Calif., USA)."}, "[2]": {"system": "c-MET-driven or HGF/c-MET-driven xenograft", "assay": "c-MET-driven or HGF/c-MET-driven xenograft mouse tumor models", "assay_type": "in vivo", "conditions": "oral dosing", "description": "[…]. […] […]. […] Importantly, cell lines with simultaneous HGF and c-MET expression are also relatively resistant to EGFR inhibitors compared to cell lines with similar c-MET level that lack HGF expression."}, "HCC827 GR cells": {"system": "HCC827 GR cells", "assay": "Proliferation assay (resazurin / AlamarBlue readout) in gefitinib-resistant HCC827 GR cells", "assay_type": "cell-based", "conditions": "monotherapy", "method": "24 h later, a 10-point dilution series of each compound was prepared in DMSO. […] A DMSO-only control was included. […] Recombinant human HGF (PeproTech, catalogue number 100-39) was added together with compounds at a constant concentration as indicated in the respective experiments. Cells were incubated for 72 to 96 h and the amount of viable cells was then assessed using a resazurin sodium salt dye reduction readout (commercially known as AlamarBlue® assay, Invitrogen, Life Technologies Corporation, Grand Island, N.Y., USA). Values were normalized and plotted as either “% of control” with the DMSO control set to 100%, or as “fold seeded cells”. In this case a resazurin readout of separate wells with untreated cells was obtained 24 h after seeding in order to determine a “seeded cells” value for normalization."}, "[3]": {"system": "HCC827GR5 subcutaneous xenografts", "assay": "Follow-up of HCC827GR5 xenografts after treatment discontinuation or extension", "assay_type": "in vivo, mice", "conditions": "4 animals", "procedure": "FIG. 5: Graphic representation of the change of tumor volumes over time after treatment discontinuation in mice (in vivo) as described in more detail in the Examples. […] Treatments started 11 days post tumor cells implantation and lasted 13 consecutive days. […] Four animals were kept under observation, without any treatment (left panel) while the two other groups of 4 animals each were kept under daily treatment as before (right panel). Tumor volumes and body weights were recorded only once a week. Horizontal lines are set at 100 and 500 mm^3 tumor volumes.\n[…]. Treatments started 11 days post tumor cells implantation and lasted 13 consecutive days. […] Four animals were kept under observation, without any treatment (left panel) while the two other groups of 4 animals each were kept under daily treatment as before (right panel). Tumor volumes and body weights were recorded only once a week. Horizontal lines are set at 100 and 500 mm^3 tumor volumes, respectively. […] […]. The tumors in the animals that received the combination therapy continued to regress from a mean volume of 33+/−1.3 to 26.3+/−2.8 mm^3 (representing a mean of 89.2% regression from the initial volume)."}}, "data": [{"smiles": "COc1cc2ncnc(Nc3ccc(F)c(Cl)c3)c2cc1OCCCN1CCOCC1", "note": "[gefitinib, N-(3-hloro-4-fluorophenyl)-7-methoxy-6-[3-(morpholin-4-yl)propoxy]quinazolin-4-amine, reference compound]", "values": [{"measurement": "antitumor effect as single agent", "setting": "[1]", "value": "statistically significant antitumor effects, but never regressions"}, {"measurement": "T/C", "setting": "[1]; first experiment (FIG. 3)", "value": 32.5, "unit": "%"}, {"measurement": "Delta tumor volume", "setting": "[1]; first experiment, Table 1", "value": 173.1}, {"measurement": "T/C", "setting": "[1]; second experiment (FIG. 4)", "value": 49.4, "unit": "%"}, {"measurement": "Delta tumor volume", "setting": "[1]; second experiment, Table 2", "value": 261}]}, {"smiles": "CNC(=O)c1ccc(-c2cnc3ncc(Cc4ccc5ncccc5c4)n3n2)cc1F", "note": "[2-fluoro-N-methyl-4-[(7-quinolin-6-yl-methyl)-imidazo[1,2-b]triazin-2-yl]benzamide]", "values": [{"measurement": "antitumor effect as single agent", "setting": "[1]", "value": "slight statistically significant tumor regressions"}, {"measurement": "regressions", "setting": "[1]; first experiment (FIG. 3)", "value": 22.9, "unit": "%"}, {"measurement": "Delta tumor volume", "setting": "[1]; first experiment, Table 1", "value": "−60.2"}, {"measurement": "regressions", "setting": "[1]; second experiment (FIG. 4)", "value": 21.4, "unit": "%"}, {"measurement": "Delta tumor volume", "setting": "[1]; second experiment, Table 2", "value": "−55.7"}, {"measurement": "effect on proliferation of the HCC827 cells", "setting": "HCC827 cells", "value": "did not show any substantial effect"}, {"measurement": "in vivo activity in blocking c-MET phosphorylation and tumor growth", "setting": "[2]", "value": "significant in vivo activity"}, {"measurement": "effect of single agent on proliferation of HCC827 GR cells", "setting": "HCC827 GR cells", "value": "modest"}, {"measurement": "tumor volume, mean+/−SEM, after treatment discontinuation", "setting": "[3]; no treatment after day 24 (FIG. 5 left graph)", "value": "516+/−112 mm^3"}, {"measurement": "tumor volume, mean, under extended daily treatment", "setting": "[3]; treatment continued after day 24 (FIG. 5 right panel)", "value": "400+/−80 mm^3"}]}]}
